Results reported in ChEMBL document CHEMBL1159340, “Antibacterial diterpenes from Calceolaria pinifolia” (J Nat Prod, 2003).
Converted amounts (≈) assume the structure as drawn.

Legend:
Staphylococcus aureus [1] = assay: Antimicrobial activity against Staphylococcus aureus infected in CD1 mouse administered subcutaneously after 30 mins infection measured after 7 days; type: functional; conditions: sc
[2] = Ratio of LD50 for CD1 mouse to ED50 for Staphylococcus aureus
Bacillus subtilis [3] = assay: Inhibition of DNA synthesis in Bacillus subtilis assessed as incorporation of [3H]thymidine at 0.25 ug/mL by LKB Betaplate scintillation counter relative to control; type: functional; set-up: scale not given: the % may be the effect or the level left
Bacillus subtilis [4] = assay: Inhibition of protein synthesis in Bacillus subtilis assessed as incorporation of [3H]amino acid at 0.25 ug/mL by LKB Betaplate scintillation counter relative to control; type: functional; set-up: scale not given: the % may be the effect or the level left
Bacillus subtilis [5] = assay: Inhibition of RNA synthesis in Bacillus subtilis assessed as incorporation of [3H]uridine at 0.25 ug/mL by LKB Betaplate scintillation counter relative to control; type: functional; set-up: scale not given: the % may be the effect or the level left
Bacillus subtilis [6] = assay: Inhibition of RNA synthesis in Bacillus subtilis assessed as [3H]uridine uptake at 0.25 ug/mL by LKB Betaplate scintillation counter relative to control; type: functional; set-up: scale not given: the % may be the effect or the level left
Bacillus subtilis [7] = assay: Inhibition of DNA synthesis in Bacillus subtilis assessed as [3H]thymidine uptake at 0.25 ug/mL by LKB Betaplate scintillation counter relative to control; type: functional; set-up: scale not given: the % may be the effect or the level left
Bacillus subtilis [8] = assay: Inhibition of protein synthesis in Bacillus subtilis assessed as [3H]amino acid uptake at 0.25 ug/mL by LKB Betaplate scintillation counter relative to control; type: functional; set-up: scale not given: the % may be the effect or the level left
[9] = Toxicity in human RBC assessed as hemolysis at 16 ug/ml after 2 hrs; type: cell-based, Erythrocyte; conditions: red blood cells (RBC), read-out: Activity
Bacillus subtilis [10] = assay: Inhibition of RNA synthesis in Bacillus subtilis assessed as incorporation of [3H]uridine at 4 ug/mL by LKB Betaplate scintillation counter relative to control; type: functional; set-up: scale not given: the % may be the effect or the level left
Bacillus subtilis [11] = assay: Inhibition of DNA synthesis in Bacillus subtilis assessed as incorporation of [3H]thymidine at 8 ug/mL by LKB Betaplate scintillation counter relative to control; type: functional; set-up: scale not given: the % may be the effect or the level left
Bacillus subtilis [12] = assay: Antimicrobial activity against Bacillus subtilis 327 after 18 hrs by microbroth dilution method; type: functional
Bacillus subtilis [13] = assay: Inhibition of RNA synthesis in Bacillus subtilis assessed as incorporation of [3H]uridine at 8 ug/mL by LKB Betaplate scintillation counter relative to control; type: functional; set-up: scale not given: the % may be the effect or the level left
Bacillus subtilis [14] = assay: Inhibition of RNA synthesis in Bacillus subtilis assessed as [3H]uridine uptake at 8 ug/mL by LKB Betaplate scintillation counter relative to control; type: functional; set-up: scale not given: the % may be the effect or the level left
Bacillus subtilis [15] = assay: Inhibition of protein synthesis in Bacillus subtilis assessed as incorporation of [3H]amino acid at 1 ug/mL by LKB Betaplate scintillation counter relative to control; type: functional; set-up: scale not given: the % may be the effect or the level left
Bacillus subtilis [16] = assay: Inhibition of protein synthesis in Bacillus subtilis assessed as [3H]amino acid uptake at 8 ug/mL by LKB Betaplate scintillation counter relative to control; type: functional; set-up: scale not given: the % may be the effect or the level left
[17] = Toxicity in human RBC assessed as hemolysis at 8 ug/ml after 2 hrs; type: cell-based, Erythrocyte; conditions: red blood cells (RBC), read-out: Activity
Bacillus subtilis [18] = assay: Inhibition of DNA synthesis in Bacillus subtilis assessed as incorporation of [3H]thymidine at 2 ug/mL by LKB Betaplate scintillation counter relative to control; type: functional; set-up: scale not given: the % may be the effect or the level left
Bacillus subtilis [19] = assay: Inhibition of DNA synthesis in Bacillus subtilis assessed as [3H]thymidine uptake at 8 ug/mL by LKB Betaplate scintillation counter relative to control; type: functional; set-up: scale not given: the % may be the effect or the level left
Staphylococcus aureus [20] = assay: Antimicrobial activity against methicillin-susceptible Staphylococcus aureus 375 after 18 hrs by microbroth dilution method; type: functional
[21] = Toxicity in human RBC assessed as hemolysis at 32 ug/ml after 2 hrs; type: cell-based, Erythrocyte; conditions: red blood cells (RBC), read-out: Activity
Bacillus subtilis [22] = assay: Inhibition of DNA synthesis in Bacillus subtilis assessed as [3H]thymidine uptake at 4 ug/mL by LKB Betaplate scintillation counter relative to control; type: functional; set-up: scale not given: the % may be the effect or the level left
[23] = Toxicity in human RBC assessed as hemolysis at 0.5 ug/ml after 2 hrs; type: cell-based, Erythrocyte; conditions: red blood cells (RBC), read-out: Activity
[24] = Toxicity in human RBC assessed as hemolysis at 64 ug/ml after 2 hrs; type: cell-based, Erythrocyte; conditions: red blood cells (RBC), read-out: Activity
Bacillus subtilis [25] = assay: Inhibition of RNA synthesis in Bacillus subtilis assessed as incorporation of [3H]uridine at 1 ug/mL by LKB Betaplate scintillation counter relative to control; type: functional; set-up: scale not given: the % may be the effect or the level left
Bacillus subtilis [26] = assay: Inhibition of RNA synthesis in Bacillus subtilis assessed as [3H]uridine uptake at 1 ug/mL by LKB Betaplate scintillation counter relative to control; type: functional; set-up: scale not given: the % may be the effect or the level left
[27] = Toxicity in human RBC assessed as hemolysis at 2 ug/ml after 2 hrs; type: cell-based, Erythrocyte; conditions: red blood cells (RBC), read-out: Activity
Bacillus subtilis [28] = assay: Inhibition of RNA synthesis in Bacillus subtilis assessed as [3H]uridine uptake at 4 ug/mL by LKB Betaplate scintillation counter relative to control; type: functional; set-up: scale not given: the % may be the effect or the level left
Staphylococcus aureus [29] = assay: Antimicrobial activity against methicillin-resistant Staphylococcus aureus 310 after 18 hrs by microbroth dilution method; type: functional
Bacillus subtilis [30] = assay: Inhibition of protein synthesis in Bacillus subtilis assessed as incorporation of [3H]amino acid at 8 ug/mL by LKB Betaplate scintillation counter relative to control; type: functional; set-up: scale not given: the % may be the effect or the level left
[31] = Toxicity in human RBC assessed as hemolysis at 4 ug/ml after 2 hrs; type: cell-based, Erythrocyte; conditions: red blood cells (RBC), read-out: Activity
Escherichia coli = assay: Antimicrobial activity against Escherichia coli imp 389 after 18 hrs by microbroth dilution method; type: functional
Bacillus subtilis [32] = assay: Inhibition of RNA synthesis in Bacillus subtilis assessed as incorporation of [3H]uridine at 2 ug/mL by LKB Betaplate scintillation counter relative to control; type: functional; set-up: scale not given: the % may be the effect or the level left
Bacillus subtilis [33] = assay: Inhibition of DNA synthesis in Bacillus subtilis assessed as [3H]thymidine uptake at 2 ug/mL by LKB Betaplate scintillation counter relative to control; type: functional; set-up: scale not given: the % may be the effect or the level left
Bacillus subtilis [34] = assay: Inhibition of protein synthesis in Bacillus subtilis assessed as incorporation of [3H]amino acid at 4 ug/mL by LKB Betaplate scintillation counter relative to control; type: functional; set-up: scale not given: the % may be the effect or the level left
[35] = Toxicity in human RBC assessed as hemolysis at 1 ug/ml after 2 hrs; type: cell-based, Erythrocyte; conditions: red blood cells (RBC), read-out: Activity
Bacillus subtilis [36] = assay: Inhibition of protein synthesis in Bacillus subtilis assessed as [3H]amino acid uptake at 1 ug/mL by LKB Betaplate scintillation counter relative to control; type: functional; set-up: scale not given: the % may be the effect or the level left
Bacillus subtilis [37] = assay: Inhibition of DNA synthesis in Bacillus subtilis assessed as [3H]thymidine uptake at 1 ug/mL by LKB Betaplate scintillation counter relative to control; type: functional; set-up: scale not given: the % may be the effect or the level left
Bacillus subtilis [38] = assay: Inhibition of DNA synthesis in Bacillus subtilis assessed as incorporation of [3H]thymidine at 1 ug/mL by LKB Betaplate scintillation counter relative to control; type: functional; set-up: scale not given: the % may be the effect or the level left
Bacillus subtilis [39] = assay: Inhibition of protein synthesis in Bacillus subtilis assessed as incorporation of [3H]amino acid at 2 ug/mL by LKB Betaplate scintillation counter relative to control; type: functional; set-up: scale not given: the % may be the effect or the level left
Bacillus subtilis [40] = assay: Inhibition of DNA synthesis in Bacillus subtilis assessed as incorporation of [3H]thymidine at 4 ug/mL by LKB Betaplate scintillation counter relative to control; type: functional; set-up: scale not given: the % may be the effect or the level left
Bacillus subtilis [41] = assay: Inhibition of RNA synthesis in Bacillus subtilis assessed as [3H]uridine uptake at 2 ug/mL by LKB Betaplate scintillation counter relative to control; type: functional; set-up: scale not given: the % may be the effect or the level left
Bacillus subtilis [42] = assay: Inhibition of protein synthesis in Bacillus subtilis assessed as [3H]amino acid uptake at 4 ug/mL by LKB Betaplate scintillation counter relative to control; type: functional; set-up: scale not given: the % may be the effect or the level left
[43] = Toxicity in human RBC assessed as hemolysis at 128 ug/ml after 2 hrs; type: cell-based, Erythrocyte; conditions: red blood cells (RBC), read-out: Activity
Bacillus subtilis [44] = assay: Inhibition of protein synthesis in Bacillus subtilis assessed as [3H]amino acid uptake at 2 ug/mL by LKB Betaplate scintillation counter relative to control; type: functional; set-up: scale not given: the % may be the effect or the level left

CN[C@H](CC(C)C)C(=O)N[C@H]1C(=O)N[C@@H](CC(N)=O)C(=O)N[C@H]2C(=O)N[C@H]3C(=O)N[C@H](C(=O)N[C@H](C(=O)O)c4cc(O)cc(O)c4-c4cc3ccc4O)[C@H](O)c3ccc(c(Cl)c3)Oc3cc2cc(c3O[C@@H]2O[C@H](CO)[C@@H](O)[C@H](O)[C@H]2O[C@H]2C[C@](C)(N)[C@H](O)[C@H](C)O2)Oc2ccc(cc2Cl)[C@H]1O [VANCOMYCIN]
ED50 (Staphylococcus aureus [1]): 1 mg/kg
Ratio LD50/ED50 [2]: > 1024

CO[C@H]1/C=C/O[C@@]2(C)Oc3c(C)c(O)c4c(O)c(c(/C=N/N5CCN(C)CC5)c(O)c4c3C2=O)NC(=O)/C(C)=C\C=C\[C@H](C)[C@H](O)[C@@H](C)[C@@H](O)[C@@H](C)[C@H](OC(C)=O)[C@@H]1C [RIFAMPIN]
Activity (Bacillus subtilis [3]): 108%
Activity (Bacillus subtilis [4]): 25%
Activity (Bacillus subtilis [5]): 29%
Activity (Bacillus subtilis [6]): 143%
Activity (Bacillus subtilis [7]): 94%
Activity (Bacillus subtilis [8]): 90%

C=C[C@]1(C)CC=C2C(CC[C@@H]3[C@](C)(CO)CCC[C@@]23C)C1 (some centres undefined)
hemolysis at 2 h, 16 ug/ml [9]: 14.8%
Activity (Bacillus subtilis [10]): 0%
Activity (Bacillus subtilis [11]): 1%
ED50 (Staphylococcus aureus [1]): > 64 mg/kg
MIC (Bacillus subtilis [12]): 4 mg/L (≈ 13.9 µM)
Activity (Bacillus subtilis [13]): 0%
Activity (Bacillus subtilis [14]): 0%
Activity (Bacillus subtilis [15]): 36%
Activity (Bacillus subtilis [16]): 1%
hemolysis at 2 h, 8 ug/ml [17]: 3.32%
Activity (Bacillus subtilis [18]): 2%
Activity (Bacillus subtilis [19]): 1%
MIC (Staphylococcus aureus [20]): 2 mg/L (≈ 6.93 µM)
hemolysis at 2 h, 32 ug/ml [21]: 71.7%
Activity (Bacillus subtilis [22]): 1%
hemolysis at 2 h, 0.5 ug/ml [23]: 0.3%
hemolysis at 2 h, 64 ug/ml [24]: 80.2%
Activity (Bacillus subtilis [25]): 2%
Activity (Bacillus subtilis [26]): 1%
hemolysis at 2 h, 2 ug/ml [27]: 0.45%
Activity (Bacillus subtilis [28]): 0%
MIC (Staphylococcus aureus [29]): 2 mg/L (≈ 6.93 µM)
Activity (Bacillus subtilis [30]): 2%
hemolysis at 2 h, 4 ug/ml [31]: 0.3%
MIC (Escherichia coli): > 128 mg/L
Activity (Bacillus subtilis [32]): 1%
Activity (Bacillus subtilis [33]): 2%
Activity (Bacillus subtilis [34]): 2%
hemolysis at 2 h, 1 ug/ml [35]: 0.08%
Activity (Bacillus subtilis [36]): 2%
Activity (Bacillus subtilis [37]): 13%
Activity (Bacillus subtilis [38]): 20%
Activity (Bacillus subtilis [39]): 4%
Activity (Bacillus subtilis [40]): 1%
Activity (Bacillus subtilis [41]): 1%
Activity (Bacillus subtilis [42]): 1%
hemolysis at 2 h, 128 ug/ml [43]: 88.1%
Activity (Bacillus subtilis [44]): 1%

C[C@H]1[C@H](C)CC[C@]2(C(=O)O)CC[C@]3(C)C(=CC[C@@H]4[C@@]5(C)CC[C@@H](O)C(C)(C)[C@@H]5CC[C@]43C)[C@H]12
MIC (Bacillus subtilis [12]): 64 mg/L (≈ 140 µM)
MIC (Staphylococcus aureus [20]): > 128 mg/L
MIC (Escherichia coli): > 128 mg/L
